The source made the active and inactive calls. No cut-off for these calls is given here.
Each molecule was assayed on Cortical neurone (assay: Neuroprotective activity against oxygen glucose deprivation induced ischemic stroke model in primary C57BL/6J E14-17 mouse Cortical neurons assessed as increase in cell viability at 1 uM incubated for 24 hrs by CCK-8 assay (Rvb= 57.43 +/- 2.54 %)). Conditions: not given.
Format: functional

SMILES	Activity
Cc1cccc(CN[C@@H]2CC[C@@H](c3ccc(Cl)c(Cl)c3)c3ccccc32)c1 (relative stereo)	65.53%
CC(C)(C)c1ccc(CN[C@@H]2CC[C@@H](c3ccc(Cl)c(Cl)c3)c3ccccc32)cc1 (relative stereo)	56.78%
NCCN[C@@H]1CC[C@@H](c2ccc(Cl)c(Cl)c2)c2ccccc21 (relative stereo)	24.79%
Clc1ccc([C@@H]2CC[C@@H](NC3CC3)c3ccccc32)cc1Cl (relative stereo)	62.49%
CCCCCCN[C@@H]1CC[C@@H](c2ccc(Cl)c(Cl)c2)c2ccccc21 (relative stereo)	62.38%
CC(C)(C)OC(=O)NCCN[C@@H]1CC[C@@H](c2ccc(Cl)c(Cl)c2)c2ccccc21 (relative stereo)	58.81%
COc1cccc(CN[C@@H]2CC[C@@H](c3ccc(Cl)c(Cl)c3)c3ccccc32)c1 (relative stereo)	51.08%
CC(C)(C)OC(=O)N1CCN(CCN[C@@H]2CC[C@@H](c3ccc(Cl)c(Cl)c3)c3ccccc32)CC1 (relative stereo)	63.76%
Clc1ccc(CN[C@@H]2CC[C@@H](c3ccc(Cl)c(Cl)c3)c3ccccc32)cc1Cl	58.46%
COc1ccc(CN[C@@H]2CC[C@@H](c3ccc(Cl)c(Cl)c3)c3ccccc32)cc1 (relative stereo)	56.57%
NCCCCN[C@@H]1CC[C@@H](c2ccc(Cl)c(Cl)c2)c2ccccc21 (relative stereo)	33.3%

Same assay, conditions: 24 h, 1 µM

SMILES	Activity
CN[C@H]1CC[C@@H](c2ccc(Cl)c(Cl)c2)c2ccccc21 (racemic) [SERTRALINE]	60.36%

The molecules below were run on Cortical neurone (assay: Neuroprotective activity against oxygen glucose deprivation induced ischemic stroke model in primary C57BL/6J E14-17 mouse Cortical neurons assessed as increase in cell viability at 0.5 to 20 uM incubated for 24 hrs by CCK-8 assay). Conditions: dose 0.5-20 µM.
Format: functional, cell-based

SMILES	Activity
C=CCC(=O)N[C@@H]1CC[C@@H](c2ccc(Cl)c(Cl)c2)c2ccccc21 (relative stereo)	Active
CN(C)[C@H]1CC[C@@H](c2ccc(Cl)c(Cl)c2)c2ccccc21	Active
CCCCCCCCN(C)[C@H]1CC[C@@H](c2ccc(Cl)c(Cl)c2)c2ccccc21 (racemic)	Active
CN[C@H]1CC[C@@H](c2ccc(Cl)c(Cl)c2)c2ccccc21	Active
Clc1ccc([C@@H]2CC[C@@H](N3CCCC3)c3ccccc32)cc1Cl (relative stereo)	Active
O=C(Cc1ccccc1)N[C@@H]1CC[C@@H](c2ccc(Cl)c(Cl)c2)c2ccccc21 (relative stereo)	Active
CCCCCCCCN(C)[C@@H]1CC[C@@H](c2ccc(Cl)c(Cl)c2)c2ccccc21 (racemic)	Active
Cc1cccc(CN[C@@H]2CC[C@@H](c3ccc(Cl)c(Cl)c3)c3ccccc32)c1 (relative stereo)	Dose-Dependent Effect
CCCC(=O)N[C@@H]1CC[C@@H](c2ccc(Cl)c(Cl)c2)c2ccccc21 (relative stereo)	Active
CCCCCCN[C@@H]1CC[C@@H](c2ccc(Cl)c(Cl)c2)c2ccccc21 (relative stereo)	Dose-Dependent Effect

These molecules were tested on Cortical neurone (assay: Cytotoxicity against primary C57BL/6J E14-17 mouse Cortical neuron assessed as decrease in cell viability upto 50 uM incubated for 24 hrs by CCK-8 assay). Conditions: not given.
Format: toxicity, cell-based

SMILES	Activity
C=CCC(=O)N[C@@H]1CC[C@@H](c2ccc(Cl)c(Cl)c2)c2ccccc21 (relative stereo)	Toxic
CN(C)[C@H]1CC[C@@H](c2ccc(Cl)c(Cl)c2)c2ccccc21	Non-Toxic
Clc1ccc([C@@H]2CC[C@@H](N3CCCC3)c3ccccc32)cc1Cl (relative stereo)	Toxic
O=C(Cc1ccccc1)N[C@@H]1CC[C@@H](c2ccc(Cl)c(Cl)c2)c2ccccc21 (relative stereo)	Toxic
CCCCCCCCN(C)[C@@H]1CC[C@@H](c2ccc(Cl)c(Cl)c2)c2ccccc21 (racemic)	Non-Toxic
Cc1cccc(CN[C@@H]2CC[C@@H](c3ccc(Cl)c(Cl)c3)c3ccccc32)c1 (relative stereo)	Toxic
CCCC(=O)N[C@@H]1CC[C@@H](c2ccc(Cl)c(Cl)c2)c2ccccc21 (relative stereo)	Toxic
CCCCCCN[C@@H]1CC[C@@H](c2ccc(Cl)c(Cl)c2)c2ccccc21 (relative stereo)	Toxic

These molecules were tested on Cortical neurone (assay: Cytotoxicity against primary C57BL/6J E14-17 mouse Cortical neuron assessed as decrease in cell viability at 10 uM incubated for 24 hrs by CCK-8 assay relative to control). Conditions: not given.
Format: toxicity, cell-based

SMILES	Activity
CN[C@H]1CC[C@@H](c2ccc(Cl)c(Cl)c2)c2ccccc21 (racemic) [SERTRALINE]	92.98%
Cc1cccc(CN[C@@H]2CC[C@@H](c3ccc(Cl)c(Cl)c3)c3ccccc32)c1 (relative stereo)	102.54%
CC(C)(C)c1ccc(CN[C@@H]2CC[C@@H](c3ccc(Cl)c(Cl)c3)c3ccccc32)cc1 (relative stereo)	93.23%
NCCN[C@@H]1CC[C@@H](c2ccc(Cl)c(Cl)c2)c2ccccc21 (relative stereo)	24.73%
Clc1ccc([C@@H]2CC[C@@H](NC3CC3)c3ccccc32)cc1Cl (relative stereo)	109.93%
CCCCCCN[C@@H]1CC[C@@H](c2ccc(Cl)c(Cl)c2)c2ccccc21 (relative stereo)	113.14%
CC(C)(C)OC(=O)NCCN[C@@H]1CC[C@@H](c2ccc(Cl)c(Cl)c2)c2ccccc21 (relative stereo)	94.48%
COc1cccc(CN[C@@H]2CC[C@@H](c3ccc(Cl)c(Cl)c3)c3ccccc32)c1 (relative stereo)	97.09%
CC(C)(C)OC(=O)N1CCN(CCN[C@@H]2CC[C@@H](c3ccc(Cl)c(Cl)c3)c3ccccc32)CC1 (relative stereo)	93.92%
Clc1ccc(CN[C@@H]2CC[C@@H](c3ccc(Cl)c(Cl)c3)c3ccccc32)cc1Cl	105.41%
COc1ccc(CN[C@@H]2CC[C@@H](c3ccc(Cl)c(Cl)c3)c3ccccc32)cc1 (relative stereo)	85.78%
NCCCCCCN[C@@H]1CC[C@@H](c2ccc(Cl)c(Cl)c2)c2ccccc21 (relative stereo)	22.62%
NCCCCN[C@@H]1CC[C@@H](c2ccc(Cl)c(Cl)c2)c2ccccc21 (relative stereo)	22.9%

Each molecule was assayed on Cortical neurone (assay: Neuroprotective activity against oxygen glucose deprivation induced ischemic stroke model in primary C57BL/6J E14-17 mouse Cortical neurons assessed as increase in cell viability at 10 uM incubated for 24 hrs by CCK-8 assay (Rvb= 57.43 +/- 2.54 %)). Conditions: not given.
Format: functional

SMILES	Activity
Cc1cccc(CN[C@@H]2CC[C@@H](c3ccc(Cl)c(Cl)c3)c3ccccc32)c1 (relative stereo)	81.18%
CC(C)(C)c1ccc(CN[C@@H]2CC[C@@H](c3ccc(Cl)c(Cl)c3)c3ccccc32)cc1 (relative stereo)	60.98%
NCCN[C@@H]1CC[C@@H](c2ccc(Cl)c(Cl)c2)c2ccccc21 (relative stereo)	3.53%
Clc1ccc([C@@H]2CC[C@@H](NC3CC3)c3ccccc32)cc1Cl (relative stereo)	66.66%
CCCCCCN[C@@H]1CC[C@@H](c2ccc(Cl)c(Cl)c2)c2ccccc21 (relative stereo)	81.04%
CC(C)(C)OC(=O)NCCN[C@@H]1CC[C@@H](c2ccc(Cl)c(Cl)c2)c2ccccc21 (relative stereo)	54.41%
COc1cccc(CN[C@@H]2CC[C@@H](c3ccc(Cl)c(Cl)c3)c3ccccc32)c1 (relative stereo)	47.87%
CC(C)(C)OC(=O)N1CCN(CCN[C@@H]2CC[C@@H](c3ccc(Cl)c(Cl)c3)c3ccccc32)CC1 (relative stereo)	57.97%
Clc1ccc(CN[C@@H]2CC[C@@H](c3ccc(Cl)c(Cl)c3)c3ccccc32)cc1Cl	55.64%
COc1ccc(CN[C@@H]2CC[C@@H](c3ccc(Cl)c(Cl)c3)c3ccccc32)cc1 (relative stereo)	60.68%
NCCCCCCN[C@@H]1CC[C@@H](c2ccc(Cl)c(Cl)c2)c2ccccc21 (relative stereo)	3.43%
NCCCCN[C@@H]1CC[C@@H](c2ccc(Cl)c(Cl)c2)c2ccccc21 (relative stereo)	3.07%

Same assay, conditions: 24 h, 10 µM

SMILES	Activity
CN[C@H]1CC[C@@H](c2ccc(Cl)c(Cl)c2)c2ccccc21 (racemic) [SERTRALINE]	45.76%

Each molecule was assayed on Cortical neurone (assay: Cytotoxicity against primary C57BL/6J E14-17 mouse Cortical neuron assessed as decrease in cell viability at 1 uM incubated for 24 hrs by CCK-8 assay relative to control). Conditions: not given.
Format: toxicity, cell-based

SMILES	Activity
CN[C@H]1CC[C@@H](c2ccc(Cl)c(Cl)c2)c2ccccc21 (racemic) [SERTRALINE]	96.32%
Cc1cccc(CN[C@@H]2CC[C@@H](c3ccc(Cl)c(Cl)c3)c3ccccc32)c1 (relative stereo)	96.85%
CC(C)(C)c1ccc(CN[C@@H]2CC[C@@H](c3ccc(Cl)c(Cl)c3)c3ccccc32)cc1 (relative stereo)	93.91%
NCCN[C@@H]1CC[C@@H](c2ccc(Cl)c(Cl)c2)c2ccccc21 (relative stereo)	103.68%
Clc1ccc([C@@H]2CC[C@@H](NC3CC3)c3ccccc32)cc1Cl (relative stereo)	100.03%
CCCCCCN[C@@H]1CC[C@@H](c2ccc(Cl)c(Cl)c2)c2ccccc21 (relative stereo)	98.87%
CC(C)(C)OC(=O)NCCN[C@@H]1CC[C@@H](c2ccc(Cl)c(Cl)c2)c2ccccc21 (relative stereo)	98.85%
COc1cccc(CN[C@@H]2CC[C@@H](c3ccc(Cl)c(Cl)c3)c3ccccc32)c1 (relative stereo)	95.52%
CC(C)(C)OC(=O)N1CCN(CCN[C@@H]2CC[C@@H](c3ccc(Cl)c(Cl)c3)c3ccccc32)CC1 (relative stereo)	100.27%
Clc1ccc(CN[C@@H]2CC[C@@H](c3ccc(Cl)c(Cl)c3)c3ccccc32)cc1Cl	101.08%
COc1ccc(CN[C@@H]2CC[C@@H](c3ccc(Cl)c(Cl)c3)c3ccccc32)cc1 (relative stereo)	98.78%
NCCCCCCN[C@@H]1CC[C@@H](c2ccc(Cl)c(Cl)c2)c2ccccc21 (relative stereo)	48.84%
NCCCCN[C@@H]1CC[C@@H](c2ccc(Cl)c(Cl)c2)c2ccccc21 (relative stereo)	90.11%

Source: ChEMBL document CHEMBL5360547 (Eur J Med Chem, 2023)
